Results as given in patent US20240059710A1, “KRAS G12D Inhibitors” (Jacobio Pharmaceuticals Co., Ltd., priority 2020, published 2024).
Where two headings read alike, the source gives them in different places.

Experiments:
[1] = molecular target: T1, GDP-loaded HIS-KRAS (G12D, aa 1-169) (Homo sapiens, UniProt P01116, G12D); test: SOS1 catalyzed nucleotide exchange assay; type: biochemical; conditions: SOS1 ExD, TR-FRET, 4 hours at 25° C.
T1 construct: GDP-loaded HIS-KRAS (G12D, aa 1-169)
Protocol: 1. SOS1 Catalyzed Nucleotide Exchange Assay
GDP-loaded HIS-KRAS (G12D, aa 1-169) was pre-incubated with a compound in the presence of 10 nM GDP in a 384-well plate (Greiner) for 15 min, then purified SOS1 ExD (Flag tag, aa 564-1049), BODIPY™ FL GTP (Invitrogen) and MAb (monoclonal antibody) Anti 6HIS-Tb cryptate Gold (Cisbio) were added to the assay wells (Final concentration: 1.5 nM GDP-loaded HIS-KRAS (G12D), 5 nM GDP, 0.5 μM SOS1 ExD, 80 nM BODIPY™ FL GTP, 52.5 ng/mL MAb Anti 6HIS-Tb cryptate Gold) and incubated for 4 hours at 25° C. Wells containing same percent of DMSO served as vehicle control, and wells without KRAS served as low control. TR-FRET signals were read on Tecan Spark multimode microplate reader. The parameters were F486: Excitation 340 nm, Emission 486 nm, Lag time 100 μs, Integration time 200 μs; F515: Excitation 340 nm, Emission 515 nm, Lag time 100 μs, Integration time 200 μs. TR-FRET ratios for each individual wells were calculated by equation: TR-FRET ratio=(Signal F515/Signal F486)*10000. The percent of activation of compounds treated wells were normalized between vehicle control and low control (% Activation=(TR-FRET ratioCompound treated−TR-FRET ratioLow control)/(TR-FRET ratioVehicle control−TR-FRET ratioLow control)*100%). Then the data were analyzed either by fitting a 4-parameter logistic model or by Excel to calculate IC50 values.

[2] = molecular target: T2, GppNp-loaded HIS-KRAS (G12D, aa 1-169) / cRAF RBD (Homo sapiens, UniProt P01116, G12D); test: GTP-KRAS and cRAF interaction assay; type: binding; conditions: HTRF, 2 hours at 25° C.
T2 construct: GppNp-loaded HIS-KRAS (G12D, aa 1-169)
T2 sequence (P01116 1-169 isoform P01116-2 G12D): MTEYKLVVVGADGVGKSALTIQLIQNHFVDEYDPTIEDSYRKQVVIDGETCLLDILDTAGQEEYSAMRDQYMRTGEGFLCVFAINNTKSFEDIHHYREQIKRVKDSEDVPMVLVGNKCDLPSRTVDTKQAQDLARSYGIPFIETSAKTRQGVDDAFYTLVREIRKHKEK
Protocol: 2. GTP-KRAS and cRAF Interaction Assay
GppNp-loaded HIS-KRAS (G12D, aa 1-169) was pre-incubated with a compound in the presence of 200 µM GTP in a 384-well plate (Greiner) for 15 min, then cRAF RBD (GST tag, aa 50-132, CreativeBioMart), MAb Anti GST-d2 (Cisbio) and MAb Anti 6HIS-Tb cryptate Gold (Cisbio) were added to the assay wells (Final concentration: 2.0 nM GppNp-loaded HIS-KRAS (G12D), 100 μM GTP, 35 nM cRAF RBD, 1 μg/mL MAb Anti GST-d2, 52.5 ng/mL MAb Anti 6HIS-Tb cryptate Gold) and incubated for 2 hours at 25° C. Wells containing same percent of DMSO served as vehicle control, and wells without KRAS served as low control. HTRF signals were read on Tecan Spark multimode microplate reader and HTRF ratios were calculated under manufacturer's instructions. The percent of activation of compounds treated wells were normalized between vehicle control and low control (% Activation=(HTRF ratioCompound treated−HTRF ratioLow control)/(HTRF ratioVehicle control−HTRF ratioLow control)*100). Then the data were analyzed either by fitting a 4-parameter logistic model or by Excel to calculate IC50 values.

[3] = test system: AGS cells expressing KRAS G12D; test: Phospho-ERK1/2(THR202/TYR204) HTRF assay; type: cell-based; conditions: 2 hours incubation, read-out: AGS p-ERK IC50
Protocol: AGS cells expressing KRAS G12D were cultured in F12K medium (Gibco) containing 10% fetal bovine serum (Gibco). The AGS cells in culture medium were seeded in 96-well plates at a concentration of 40,000 cells/well and then put in a 37° C./5% CO2 cell incubator to incubate overnight. The next day, culture medium was removed and the compound diluted in assay medium (F12K, 0.1% FBS) was added in each well. After 2 hours incubation in a 37° C./5% CO2 cell incubator, the assay medium in 96-well plates was removed, then 50 μL of 1× blocking reagent-supplemented lysis buffer (Cisbio) was added and the plates were incubated at 25° C. for 45 min with shaking. 10 μL of cell lysates from the 96-well plates were transferred to a 384-well plate (Greiner) containing 2.5 μL/well HTRF® pre-mixed antibodies (Cisbio 64AERPEH). Incubate 4 hours at 25° C. and then read HTRF signals on Tecan Spark multimode microplate reader. The data were analyzed using a 4-parameter logistic model to calculate IC50 values.

[4] = test system: AGS; test: Cell growth inhibition assay (AGS); type: cell-based; conditions: 6 days incubation, CellTiter-Glo
Protocol: (§1) 4. Cell Growth Inhibition Assay
AGS cultured in F12K medium (Gibco) containing 10% fetal bovine serum (Gibco). Cells in culture medium were plated in 96-well plates at a concentration of 500 cells/well ([…]) and allowed to attach overnight.
(§2) The next day, compounds were diluted in culture medium and added to the plates. After 6 days incubation in a 37° C./5% CO2 cell incubator, the cell viability was detected by CellTiter-Glo® Luminescent Cell Viability Assay kit (Promega). Luminescent signals were read on Tecan Spark multimode microplate reader and analyzed using a 4-parameter logistic model to calculate IC50 values.

[5] = test system: AsPC-1; test: Cell growth inhibition assay (AsPC-1); type: cell-based; conditions: AsPC-1, 6 days incubation, CellTiter-Glo
Protocol: as §1
AsPC-1 cultured in RPMI-1640 medium (Gibco) containing 10% fetal bovine serum (Gibco). Cells in culture medium were plated in 96-well plates at a concentration of 1000 cells/well ([…]) and allowed to attach overnight.
as §2

T1 sequence (P01116 1-169 isoform P01116-2 G12D): as above

Compound	IC50 [1]	IC50 [2]	IC50 ([3]; Homo sapiens)	IC50 ([4]; Homo sapiens, 144 h)	IC50 ([5]; Homo sapiens, ASPC1, 144 h)	IC50 [3]	IC50 [4]	IC50 [5]
C#Cc1cccc2cc(O)cc(-c3ccc4c(N5CC6CCC(C5)N6)nc(OCC5(CN6CCSCC6)CC5)nc4c3F)c12 [Compound 78]	8.8 nM	99.8 nM	31.6 nM	4.04 nM	30.3 nM			
C#Cc1cccc2cc(O)cc(-c3c(C)cc4c(N5CC6CCC(C5)N6)nc(OCC5(CN6CCOCC6)CC5)nc4c3F)c12 (single isomer, unassigned) [Compound 40B]	0.824 nM	22.4 nM				1.97 nM	4.92 nM	45.8 nM
C#Cc1cccc2cc(O)cc(-c3ccc4c(N5CC6CC(C5)N6)nc(OCC5(CN6CCOCC6)CC5)nc4c3F)c12 [Compound 55]	11.6 nM	147 nM	27.5 nM	76.9 nM	649 nM			
C#Cc1cccc2cc(O)cc(-c3ccc4c(N5CC6CCC(C5)N6)nc(OCC5(CN6CCOCC6)CC5)nc4c3Cl)c12 [Compound 121]	28.8 nM	318 nM	19.7 nM	11.2 nM	67 nM			
C#Cc1cccc2cc(O)cc(-c3cc4nc(OCC5(CN6CCOCC6)CC5)nc(N5CC6CCC(C5)N6)c4cc3C(F)(F)F)c12 [Compound 119]	42.9 nM	200 nM	113 nM	81.6 nM	362 nM			
C#Cc1c(Cl)ccc2cc(O)cc(-c3ccc4c(N5CC6CCC(C5)N6)nc(OCC5(CN6CCOCC6)CC5)nc4c3F)c12 [Compound 127]	1.18 nM	15.7 nM	2.61 nM	1.82 nM	24 nM			
C#Cc1cccc2cc(O)cc(-c3c(C(=C)C)cc4c(N5CC6CCC(C5)N6)nc(OCC5(CN6CCOCC6)CC5)nc4c3F)c12 [Compound 105]	1.57 nM	15.6 nM	13 nM	18.4 nM	63.3 nM			
C#Cc1c(F)ccc2cc(O)cc(-c3c(C4CC4)cc4c(N5CC6CCC(C5)N6)nc(OC[C@@]56CCCN5C[C@H](F)C6)nc4c3F)c12 [Compound 71]	60 nM	73.2 nM	9.31 nM	205 nM	723 nM			
C#Cc1cccc2cc(O)cc(-c3c(C(F)(F)F)cc4c(N5CC6CCC(C5)N6)nc(OCC5(CN6CCOCC6)CC5)nc4c3F)c12 [Compound 98]	1.29 nM	20.1 nM	13.7 nM	18 nM	69.7 nM			
C#Cc1cccc2cc(O)cc(-c3cc4nc(OC[C@@]56CCCN5C[C@H](F)C6)nc(N5CC6CCC(C5)N6)c4cc3C)c12 [Compound 75]	9.26 nM	84.2 nM	14.6 nM	5.64 nM	62.3 nM			
C#Cc1cccc2cc(O)cc(-c3ccc4c(N5CC6CCC(C5)N6)nc(OCC5(CN6CCO[C@@H](C)C6)CC5)nc4c3F)c12 [Compound 80]	3.76 nM	69.4 nM	3.63 nM	5.26 nM	24.1 nM			
C#Cc1cccc2cc(O)cc(-c3c(CC)cc4c(N5CC6CCC(C5)N6)nc(OCC5(CN6CCOCC6)CC5)nc4c3F)c12 [Compound 49]	3.51 nM	26.3 nM	16.8 nM	10.7 nM	88 nM			
C#Cc1c(F)ccc2cc(O)cc(-c3ccc4c(N5CC6CCC(C5)N6)nc(OCC5(CN6CCCC(F)C6)CC5)nc4c3F)c12 (stereo not shown) [Compound 74]	10 nM	39.8 nM	12.4 nM	4.41 nM	21.3 nM			
C#Cc1cccc2cc(O)cc(-c3ccc4c(N5CC6CCC(C5)N6)nc(OCC5(CN6CCO[C@H](C)C6)CC5)nc4c3F)c12 [Compound 68]	14.4 nM	131 nM	4.83 nM	3.26 nM	7.8 nM			
C#Cc1c(F)ccc2cc(O)cc(-c3ccc4c(N5CC6CCC(C5)N6)nc(OCC5(CN6CCOCC6)CC5)nc4c3F)c12 [Compound 48]	7.14 nM	17.7 nM	0.794 nM	1.14 nM	19.9 nM			
Oc1cc(Cl)c(C2CC2)c(-c2c(Cl)cc3c(N4CC5CCC(C4)N5)nc(OCC4(CN5CCOCC5)CC4)nc3c2F)c1 [Compound 133]	7.82 nM	688 nM	456 nM	140 nM	714 nM			
C#Cc1cccc2cc(O)cc(-c3c(F)cc4c(N5CC6CCC(C5)N6)nc(OCC5(CN6CCS(=O)(=O)CC6)CC5)nc4c3F)c12 [Compound 83]	18 nM	3150 nM	131 nM	273 nM	5090 nM			
Oc1cc(-c2ccc3c(N4CC5CCC(C4)N5)nc(OCC4(CN5CCOCC5)CC4)nc3c2F)c2cccc(F)c2c1 [Compound 50]	56.9 nM	1110 nM	441 nM					
C#Cc1cccc2cc(O)cc(-c3ccc4c(N5C6CCC5CNC6)nc(OC[C@@]56CCCN5C[C@H](F)C6)nc4c3F)c12 [Compound 70]	8.43 nM	59.1 nM			140 nM			
Oc1cc(-c2c(Cl)cc3c(N4CC5CCC(C4)N5)nc(OCC4(CN5CCOCC5)CC4)nc3c2F)c2c(F)cccc2c1 [Compound 53]	57.1 nM	853 nM	99.6 nM					
C#Cc1cccc2cc(O)cc(-c3ccc4c(N5CCNC[C@H]5C)nc(OC[C@@]56CCCN5C[C@H](F)C6)nc4c3F)c12 [Compound 69]	25.1 nM	781 nM			1070 nM			
C#Cc1cccc2cc(O)cc(-c3c(C#N)cc4c(N5CC6CCC(C5)N6)nc(OCC5(CN6CCOCC6)CC5)nc4c3F)c12 (single isomer, unassigned) [Compound 60A]	766 nM	7690 nM						
Oc1cc(Cl)c(C(F)(F)F)c(-c2ccc3c(N4CC5CCC(C4)N5)nc(OC[C@@]45CCCN4C[C@H](F)C5)nc3c2F)c1 [Compound 85]	69.1 nM	2210 nM						
C#Cc1cccc2cc(O)cc(-c3ccc4c(N5C[C@H]6C[C@@H]5CN6)nc(OCC5(CN6CCOCC6)CC5)nc4c3F)c12 [Compound 54]	89.8 nM	356 nM						
